Measured values as given in patent US6645918B1, “N-([1,2,4]triazoloazinyl)thiophenesulfonamide compounds and their use as herbicides” (Dow AgroSciences LLC, priority 2000, dated 2003).

Key:
Format in all cases: in vivo
[1] = test system: giant foxtail (Setaria faberi); experiment: Postemergence herbicidal activity, giant foxtail; details: foliar spray, visual after 2 weeks, 0 no injury, 100 complete kill
Description: (§1) Seeds of the desired test plant species were planted in Grace-Sierra MetroMix® 306 planting mixture, which typically has a pH of 6.0 to 6.8 and an organic matter content of about 30 percent, in plastic pots with a surface area of 64 square centimeters. When required to ensure good germination and healthy plants, a fungicide treatment and/or other chemical or physical treatment was applied. The plants were grown for 7-21 days in a greenhouse with an approximately 15 hr photoperiod which was maintained at about 23-29° C. during the day and 22-28° C. during the night. Nutrients and water were added on a regular basis and supplemental lighting was provided with overhead metal halide 1000 Watt lamps as necessary. The plants were employed for testing when they reached the first or second true leaf stage. A weighed amount of each test compound, determined by the highest rate to be tested, was placed in a 20 mL glass vial and was dissolved in 4 mL of a 97:3 v/v (volume/volume) mixture of acetone and dimethyl sulfoxide to obtain concentrated stock solutions. […] The concentrated stock solutions obtained were diluted with an aqueous mixture containing acetone, water, iso-propyl alcohol, dimethyl sulfoxide, Atplus 411F crop oil concentrate, and Triton X-155 surfactant (methylenebisdiamyl phenoxy polyethoxy ethanol) in a 48.5:39:10:1.5:1.0:0.02 v/v ratio to obtain spray solutions of known concentration. The solutions containing the highest concentration to be tested were prepared by diluting 2 mL aliquots of the stock solution with 13 mL of the mixture and lower concentrations were prepared by dilution of appropriate smaller portions of the stock solution. Approximately 1.5 mL aliquots of each solution of known concentration were sprayed evenly onto each of the test plant pots using a DeVilbiss atomizer driven by compressed air pressure of 2 to 4 psi (140 to 280 kilopascals) to obtain thorough coverage of each plant. Control plants were sprayed in the same manner with the aqueous mixture. In this test an application rate of 1 ppm results in the application of approximately 1 g/ha. The treated plants and control plants were placed in a greenhouse as described above and watered by sub-irrigation to prevent wash-off of the test compounds. After 2 weeks the condition of the test plants as compared with that of the untreated plants was determined visually and scored on a scale of 0 to 100 percent where 0 corresponds to no injury and 100 corresponds to complete kill.

wild oats (Avena fatua) [2] = experiment: Postemergence herbicidal activity, wild oats; details: foliar spray, visual after 2 weeks, 0 no injury, 100 complete kill
Description: as §1

[3] = test system: wild poinsettia (Euphorbia heterophylla); experiment: Preemergence herbicidal activity, wild poinsettia; details: 35 g/Ha, soil spray, visual after 3 weeks; 0 no injury, 100 complete kill or no germination
Description: (§2) The soil matrix was contained in plastic pots with a surface area of 161 square centimeters. When required to ensure good germination and healthy plants, a fungicide treatment and/or other chemical or physical treatment was applied. A weighed amount, determined by the highest rate to be tested, of each test compound was placed in a 20 mL glass vial and was dissolved in 8 mL of a 97:3 v/v (volume/volume) mixture of acetone and dimethyl sulfoxide to obtain concentrated stock solutions. […] The stock solutions obtained were diluted with a 99.9:0.1 mixture of water and Tween® 155 surfactant (ethoxylated sorbitan fatty acid ester) to obtain application solutions of known concentration. The solutions containing the highest concentration to be tested were prepared by diluting 4 mL aliquots of the stock solution with 8.5 mL of the mixture and lower concentrations were prepared by dilution of appropriate smaller portions of the stock solution. A 2.5 mL aliquot of each solution of known concentration was sprayed evenly onto the soil of each seeded pot using a Cornwall 5.0 mL glass syringe fitted with a TeeJet TN-3 hollow cone nozzle to obtain thorough coverage of the soil in each pot. Control pots were sprayed in the same manner with the aqueous mixture. A highest application rate of 4.48 kg/ha is achieved when 50 mg of test compound is employed. The treated pots and control pots were placed in a greenhouse with an approximately 15 hr photoperiod which was maintained at about 23-29° C. during the day and 22-28° C. during the night. Nutrients and water were added on a regular basis and supplemental lighting was provided with overhead metal halide 1000 Watt lamps as necessary. The water was added by top-irrigation. After 3 weeks the condition of the test plants that germinated and grew as compared with that of the untreated plants that germinated and grew was determined visually and scored on a scale of 0 to 100 percent where 0 corresponds to no injury and 100 corresponds to complete kill or no germination.

[4] = test system: Rox orange sorghum (Sorghum bicolor); experiment: Postemergence herbicidal activity, Rox orange sorghum; details: foliar spray, visual after 2 weeks, 0 no injury, 100 complete kill
Description: as §1

[5] = test system: velvetleaf (Abutilion theophrasti); experiment: Preemergence herbicidal activity, velvetleaf; details: 35 g/Ha, soil spray, visual after 3 weeks; 0 no injury, 100 complete kill or no germination
Description: as §2

viola (Viola tricolor) = experiment: Postemergence herbicidal activity, viola; details: foliar spray, visual after 2 weeks, 0 no injury, 100 complete kill
Description: as §1

[6] = test system: morningglory (Ipomoea hederacea); experiment: Postemergence herbicidal activity, morningglory; details: foliar spray, visual after 2 weeks, 0 no injury, 100 complete kill
Description: as §1

[7] = test system: morningglory (Ipomoea hederacea); experiment: Preemergence herbicidal activity, morningglory; details: 35 g/Ha, soil spray, visual after 3 weeks; 0 no injury, 100 complete kill or no germination
Description: as §2

[8] = test system: blackgrass (Alopecurus myosuroides); experiment: Postemergence herbicidal activity, blackgrass; details: foliar spray, visual after 2 weeks, 0 no injury, 100 complete kill
Description: as §1

[9] = test system: pigweed (Amaranthus retroflexus); experiment: Postemergence herbicidal activity, pigweed; details: foliar spray, visual after 2 weeks, 0 no injury, 100 complete kill
Description: as §1

[10] = test system: Rox orange sorghum (Sorghum bicolor); experiment: Preemergence herbicidal activity, Rox orange sorghum; details: 35 g/Ha, soil spray, visual after 3 weeks; 0 no injury, 100 complete kill or no germination
Description: as §2

[11] = test system: blackgrass (Alopecurus myosuroides); experiment: Preemergence herbicidal activity, blackgrass; details: 35 g/Ha, soil spray, visual after 3 weeks; 0 no injury, 100 complete kill or no germination
Description: as §2

[12] = test system: barnyardgrass (Echinochloa crus-galli); experiment: Preemergence herbicidal activity, barnyardgrass; details: 35 g/Ha, soil spray, visual after 3 weeks; 0 no injury, 100 complete kill or no germination
Description: as §2

[13] = test system: velvetleaf (Abutilion theophrasti); experiment: Postemergence herbicidal activity, velvetleaf; details: foliar spray, visual after 2 weeks, 0 no injury, 100 complete kill
Description: as §1

[14] = test system: pigweed (Amaranthus retroflexus); experiment: Preemergence herbicidal activity, pigweed; details: 35 g/Ha, soil spray, visual after 3 weeks; 0 no injury, 100 complete kill or no germination
Description: as §2

[15] = test system: crabgrass (Digitaria sanguinalis); experiment: Preemergence herbicidal activity, crabgrass; details: 35 g/Ha, soil spray, visual after 3 weeks; 0 no injury, 100 complete kill or no germination
Description: as §2

[16] = test system: cocklebur (Xanthium strumarium); experiment: Postemergence herbicidal activity, cocklebur; details: foliar spray, visual after 2 weeks, 0 no injury, 100 complete kill
Description: as §1

[17] = test system: lambsquarters (Chenopodium album); experiment: Preemergence herbicidal activity, lambsquarters; details: 35 g/Ha, soil spray, visual after 3 weeks; 0 no injury, 100 complete kill or no germination
Description: as §2

[18] = test system: cocklebur (Xanthium strumarium); experiment: Preemergence herbicidal activity, cocklebur; details: 35 g/Ha, soil spray, visual after 3 weeks; 0 no injury, 100 complete kill or no germination
Description: as §2

[19] = test system: wild buckwheat (Polygonum convolvulus); experiment: Postemergence herbicidal activity, wild buckwheat; details: foliar spray, visual after 2 weeks, 0 no injury, 100 complete kill
Description: as §1

[20] = test system: chickweed (Stellaria media); experiment: Postemergence herbicidal activity, chickweed; details: foliar spray, visual after 2 weeks, 0 no injury, 100 complete kill
Description: as §1

[21] = test system: giant foxtail (Setaria faberi); experiment: Preemergence herbicidal activity, giant foxtail; details: 35 g/Ha, soil spray, visual after 3 weeks; 0 no injury, 100 complete kill or no germination
Description: as §2

[22] = test system: lambsquarters (Chenopodium album); experiment: Postemergence herbicidal activity, lambsquarters; details: foliar spray, visual after 2 weeks, 0 no injury, 100 complete kill
Description: as §1

wild oats (Avena fatua) [23] = experiment: Preemergence herbicidal activity, wild oats; details: 35 g/Ha, soil spray, visual after 3 weeks; 0 no injury, 100 complete kill or no germination
Description: as §2

SMILES	EPHHL preemergence injury score 0-100 [3] [%]	ABUTH preemergence injury score 0-100 [5] [%]	IPOHE preemergence injury score 0-100 [7] [%]	SORBI preemergence injury score 0-100 [10] [%]	ALOMY preemergence injury score 0-100 [11] [%]	ECHCG preemergence injury score 0-100 [12] [%]	AMARE preemergence injury score 0-100 [14] [%]	DIGSA preemergence injury score 0-100 [15] [%]	CHEAL preemergence injury score 0-100 [17] [%]	XANST preemergence injury score 0-100 [18] [%]	SETFA preemergence injury score 0-100 [21] [%]	AVEFA preemergence injury score 0-100 (wild oats (Avena fatua) [23]) [%]	further results
COc1cc(Cl)sc1S(=O)(=O)Nc1nc2c(OC)cnc(OC)n2n1 [Compound 3]	70	50	60	90	80	70	95	95	95	70	90	70	SETFA postemergence injury score 0-100 ([1]; 31 ppm): 85%; AVEFA postemergence injury score 0-100 (wild oats (Avena fatua) [2]; 31 ppm): 80%; SORBI postemergence injury score 0-100 ([4]; 31 ppm): 90%; VIOTR postemergence injury score 0-100 (viola (Viola tricolor); 31 ppm): 80%; IPOHE postemergence injury score 0-100 ([6]; 31 ppm): 70%; ALOMY postemergence injury score 0-100 ([8]; 31 ppm): 70%; AMARE postemergence injury score 0-100 ([9]; 31 ppm): 100%; ABUTH postemergence injury score 0-100 ([13]; 31 ppm): 70%; XANST postemergence injury score 0-100 ([16]; 31 ppm): 100%; POLCO postemergence injury score 0-100 ([19]; 31 ppm): 85%; STEME postemergence injury score 0-100 ([20]; 31 ppm): 70%; CHEAL postemergence injury score 0-100 ([22]; 31 ppm): 95%
COc1cscc1S(=O)(=O)Nc1nc2c(Cl)cnc(OC)n2n1 [Compound 14]	30	80	60	100	100	98	80	100	98	60	100	100	SETFA postemergence injury score 0-100 ([1]; 31.3 ppm): 95%; AVEFA postemergence injury score 0-100 (wild oats (Avena fatua) [2]; 31.3 ppm): 80%; SORBI postemergence injury score 0-100 ([4]; 31.3 ppm): 95%; VIOTR postemergence injury score 0-100 (viola (Viola tricolor); 31.3 ppm): 75%; IPOHE postemergence injury score 0-100 ([6]; 31.3 ppm): 80%; ALOMY postemergence injury score 0-100 ([8]; 31.3 ppm): 80%; AMARE postemergence injury score 0-100 ([9]; 31.3 ppm): 95%; ABUTH postemergence injury score 0-100 ([13]; 31.3 ppm): 90%; XANST postemergence injury score 0-100 ([16]; 31.3 ppm): 95%; POLCO postemergence injury score 0-100 ([19]; 31.3 ppm): 95%; STEME postemergence injury score 0-100 ([20]; 31.3 ppm): 100%; CHEAL postemergence injury score 0-100 ([22]; 31.3 ppm): 100%
